Experimental data: patent US8828696B2, “Use of Penicillin G Procaine as a selective antimicrobial agent in the production of alcohol by fermentation” (Lallemand Specialites, Inc, priority 2008, dated 2014)
Read-outs that look alike come from different tables or passages of the source.

System: Saccharomyces cerevisiae yeast
Format: cell-based
Protocol: A study was conducted to determine the degree of impact of the fermentation antimicrobial Penicillin G Procaine and Penicillin G potassium during alcohol production by fermentation. The antimicrobial impact was inferred by conducting a series of fermentations and measuring if the above said antibiotics interfered with the cell growth and the fermentation function of Saccharomyces cerevisiae yeast used in the fermentation phase. This study provided analysis of what impact, if any, the Penicillin G Procaine or Penicillin G Potassium has on the yeast during lab scale fermentations, specifically BioFerm® XR yeast from North American Bioproducts Corporation (NABC). This study observed the ability of yeast to replicate and ferment a corn mash substrate with and without the presence of Penicillin G Procaine or Penicillin G Potassium.
This study was set up in a series of fermentation vessels. All antibiotic concentrations were tested in triplicate. Cell counts were done on one flask for each treatment at 12, 24, 36 and 48 hours and testing of the fermentation reactions by HPLC was also performed at 12, 24, 36 and 48 hours. The experiment was set as follows:
1. Antibiotic solutions were prepared to provide a sterile 1 and 10 μg/ml solutions.
2. Antibiotic solutions tested were as follows:
3. Fermentations were set up using 31% solids corn mash using saccharifying enzymes and the following procedure:
A. Yeast Conditioning: • 1. Add 2 g yeast to 10 ml sterile water for each 3 flasks to test, (14 g yeast to 70 ml water) into a sterile 250 ml flask and place in water bath set to 100° F. • 2. Incubate at 100° F. for 30 minutes with occasional mixing. • 3. Remove flasks from water bath and divide suspension between the all flasks for the trial.
B. Fermentation Procedure • 1. To prepared mash, add the following. • a. Add 0.58 g urea/liter mash and mix. • b. Add 0.2 ml GA per liter and mix. • 2. Remove sample for background HPLC testing. • 3. Add antibiotic solution to labeled sterile 250 ml flasks. • 4. Add hydrated yeast suspension to mash and mix well. • 5. Add sterile stir bar to each flask and add about 150 ml mash into each 250 ml flask for a total of 21 flasks. • 6. Cover each flask with a gas trap in a sterilized stopper. • 7. Place in a 33° C. water bath with continuous mixing at 280 rpm at 75% power. • 8. Remove sample at 12 hr interval to perform cell count, viability and budding. • 9. Incubate sample up to 48 hours, enough time for complete fermentation • 10. Collect samples at the following times for cell counts and HPLC testing: 12 hours; 24 hours; 36 hours and 48 hours

[1] = 5 ppm, 12 hours, total cell count x % viability
[2] = 5 ppm, 12 hr fermentation sample
[3] = 5 ppm, 24 hours, total cell count x % viability
[4] = 5 ppm, 24 hr fermentation sample
[5] = 5 ppm, 36 hours, total cell count x % viability
[6] = 5 ppm, 36 hr fermentation sample
[7] = 5 ppm, 48 hours, total cell count x % viability
[8] = 5 ppm, 48 hr fermentation sample
[9] = 5 ppm, average of 12, 24, 36 and 48 hour samples
[10] = 15 ppm, 12 hours, total cell count x % viability
[11] = 15 ppm, 12 hr fermentation sample
[12] = 15 ppm, 24 hours, total cell count x % viability
[13] = 15 ppm, 24 hr fermentation sample
[14] = 15 ppm, 36 hours, total cell count x % viability
[15] = 15 ppm, 36 hr fermentation sample
[16] = 15 ppm, 48 hours, total cell count x % viability
[17] = 15 ppm, 48 hr fermentation sample
[18] = 15 ppm, average of 12, 24, 36 and 48 hour samples
[19] = 30 ppm, 12 hours, total cell count x % viability
[20] = 30 ppm, 12 hr fermentation sample
[21] = 30 ppm, 24 hours, total cell count x % viability
[22] = 30 ppm, 24 hr fermentation sample
[23] = 30 ppm, 36 hours, total cell count x % viability
[24] = 30 ppm, 36 hr fermentation sample
[25] = 30 ppm, 48 hours, total cell count x % viability
[26] = 30 ppm, 48 hr fermentation sample
[27] = 30 ppm, average of 12, 24, 36 and 48 hour samples
[28] = average for all three trials (5, 15, 30 ppm), 12-48 hour samples
[29] = average for all three trials (5, 15, 30 ppm), 12 hours
[30] = average for all three trials (5, 15, 30 ppm), 24 hours
[31] = average for all three trials (5, 15, 30 ppm), 36 hours
[32] = average for all three trials (5, 15, 30 ppm), 48 hours
[33] = average for all three trials (5, 15, 30 ppm), Average 12-48 hours

CC1(C)S[C@@H]2[C@H](NC(=O)Cc3ccccc3)C(=O)N2[C@H]1C(=O)[O-].[K+] [Penicillin G Potassium]
viable yeast cell count [1]: 510
% B (% budding) [2]: 13.8%
% V (% viability) [2]: 88%
CC (cell count) [2]: 580
viable yeast cell count [3]: 500
% B (% budding) [4]: 8.4%
% V (% viability) [4]: 90%
CC (cell count) [4]: 556
viable yeast cell count [5]: 421
% B (% budding) [6]: 8.1%
% V (% viability) [6]: 81%
CC (cell count) [6]: 520
viable yeast cell count [7]: 381
% B (% budding) [8]: 8.9%
% V (% viability) [8]: 75%
CC (cell count) [8]: 508
viable yeast cell count (5 ppm, Average 12-48 hours): 453
A % B (average % budding) [9]: 9.8%
A % V (average % viability) [9]: 83.5%
ACC (average cell count) [9]: 541
viable yeast cell count [10]: 469
% B (% budding) [11]: 13.3%
% V (% viability) [11]: 85%
CC (cell count) [11]: 552
viable yeast cell count [12]: 465
% B (% budding) [13]: 7.5%
% V (% viability) [13]: 86%
CC (cell count) [13]: 541
viable yeast cell count [14]: 435
% B (% budding) [15]: 6.2%
% V (% viability) [15]: 82%
CC (cell count) [15]: 530
viable yeast cell count [16]: 372
% B (% budding) [17]: 7.3%
% V (% viability) [17]: 72%
CC (cell count) [17]: 516
viable yeast cell count (15 ppm, Average 12-48 hours): 435
A % B (average % budding) [18]: 8.6%
A % V (average % viability) [18]: 81.3%
ACC (average cell count) [18]: 535
viable yeast cell count [19]: 535
% B (% budding) [20]: 12.3%
% V (% viability) [20]: 86%
CC (cell count) [20]: 622
viable yeast cell count [21]: 462
% B (% budding) [22]: 8.7%
% V (% viability) [22]: 88%
CC (cell count) [22]: 525
viable yeast cell count [23]: 401
% B (% budding) [24]: 8.7%
% V (% viability) [24]: 80%
CC (cell count) [24]: 501
viable yeast cell count [25]: 393
% B (% budding) [26]: 6.4%
% V (% viability) [26]: 77%
CC (cell count) [26]: 511
viable yeast cell count (30 ppm, Average 12-48 hours): 448
A % B (average % budding) [27]: 9.0%
A % V (average % viability) [27]: 82.8%
ACC (average cell count) [27]: 540
A % B (average % budding) [28]: 9.1%
A % V (average % viability) [28]: 82.5%
ACC (average cell count) [28]: 539
viable yeast cell count [29]: 505
viable yeast cell count [30]: 476
viable yeast cell count [31]: 419
viable yeast cell count [32]: 382
viable yeast cell count [33]: 445

CC1(C)S[C@@H]2[C@H](NC(=O)Cc3ccccc3)C(=O)N2[C@H]1C(=O)O.CCN(CC)CCOC(=O)c1ccc(N)cc1 [Penicillin G Procaine]
viable yeast cell count [1]: 535
% B (% budding) [2]: 15.0%
% V (% viability) [2]: 89%
CC (cell count) [2]: 601
viable yeast cell count [3]: 489
% B (% budding) [4]: 7.9%
% V (% viability) [4]: 88%
CC (cell count) [4]: 556
viable yeast cell count [5]: 432
% B (% budding) [6]: 9.2%
% V (% viability) [6]: 83%
CC (cell count) [6]: 521
viable yeast cell count [7]: 404
% B (% budding) [8]: 8.0%
% V (% viability) [8]: 75%
CC (cell count) [8]: 538
viable yeast cell count (5 ppm, Average 12-48 hours): 465
A % B (average % budding) [9]: 10.0%
A % V (average % viability) [9]: 83.8%
ACC (average cell count) [9]: 554
viable yeast cell count [10]: 494
% B (% budding) [11]: 17.7%
% V (% viability) [11]: 86%
CC (cell count) [11]: 574
viable yeast cell count [12]: 528
% B (% budding) [13]: 7.8%
% V (% viability) [13]: 91%
CC (cell count) [13]: 580
viable yeast cell count [14]: 410
% B (% budding) [15]: 7.3%
% V (% viability) [15]: 78%
CC (cell count) [15]: 526
viable yeast cell count [16]: 385
% B (% budding) [17]: 9.0%
% V (% viability) [17]: 74%
CC (cell count) [17]: 520
viable yeast cell count (15 ppm, Average 12-48 hours): 454
A % B (average % budding) [18]: 10.4%
A % V (average % viability) [18]: 82.3%
ACC (average cell count) [18]: 550
viable yeast cell count [19]: 528
% B (% budding) [20]: 14.8%
% V (% viability) [20]: 85%
CC (cell count) [20]: 621
viable yeast cell count [21]: 496
% B (% budding) [22]: 10.3%
% V (% viability) [22]: 89%
CC (cell count) [22]: 557
viable yeast cell count [23]: 400
% B (% budding) [24]: 7.0%
% V (% viability) [24]: 78%
CC (cell count) [24]: 513
viable yeast cell count [25]: 385
% B (% budding) [26]: 6.0%
% V (% viability) [26]: 78%
CC (cell count) [26]: 493
viable yeast cell count (30 ppm, Average 12-48 hours): 452
A % B (average % budding) [27]: 9.5%
A % V (average % viability) [27]: 82.5%
ACC (average cell count) [27]: 546
A % B (average % budding) [28]: 10.0%
A % V (average % viability) [28]: 82.8%
ACC (average cell count) [28]: 550
viable yeast cell count [29]: 519
viable yeast cell count [30]: 504
viable yeast cell count [31]: 414
viable yeast cell count [32]: 391
viable yeast cell count [33]: 457
